Values quoted from earlier work, collected in patent publication US9775789B2, “Topical liposome compositions containing phenolic anti-inflammatory agents and their methods of preparation” (D& J ROSEE INC., priority 2012, dated 2017).

Key:
MRSA [1] = conditions: time-kill study
[2] = in vitro; superoxide anion and hydroxyl radicals
tumor = conditions: topical application and UV radiation versus controls
keratinocytes [3] = conditions: applied during 48 hours, then simulated solar radiation (2 MED); skin biopsy
[4] = test system: nuclear factor kappa beta (NF-κB) in normal human epidermal keratinocytes (NHEK); conditions: pretreatment of keratinocytes before UVB exposure
TNF-α and INF-γ = conditions: versus control; SEB intraperitoneally
cultured keratinocytes = conditions: in vitro
MRSA [5] = conditions: all 53 MRSA clinical isolates
[6] = test system: atopic dermatitis (AD) type skin lesions; conditions: daily topical application after allergen extract; versus vehicle
[7] = test system: cultured squamous carcinoma cells; conditions: in vitro
keratinocytes [8] = conditions: 6-week application under occlusion

Question: What does the source list for `O=C(O[C@@H]1Cc2c(O)cc(O)cc2O[C@@H]1c1cc(O)c(O)c(O)c1)c1cc(O)c(O)c(O)c1` [EGCG, epigallocatechin gallate]?
Answer: bactericidal concentration (MRSA [1]; one isolate): 6 times the MIC; bacteriostatic concentration (MRSA [1]; one isolate): 1-2 times the MIC; bactericidal concentration, aqueous solution (MRSA [1]; equivalent of 6 times the MIC): ~0.04%; UV-induced infiltration of inflammatory leukocytes into the skin (human skin; EGCG pretreatment): inhibited; UV-induced production of hydrogen peroxide, nitric oxide and lipid peroxide in both epidermis and dermis (human skin; topical application before a single UV exposure (4× MED), punch biopsies): markedly decreased; susceptibility of T. rubrum compared with reference antifungals (T. rubrum): more susceptible than to flucytosine and similar to fluconazole; MIC (T. rubrum; 11 clinical isolates of T. rubrum): 1-16 μg per mL; ROS scavenging activity [2]: superior to other tea catechins; tumor incidence and size (tumor): significant reductions; greater increase in keratinocyte cell numbers versus vehicle-treated (keratinocytes [3]): 4 fold; UVB-induced activation of NFκB [4]: significant dose- and time-dependent inhibition; serum levels of TNF-α and INF-γ (TNF-α and INF-γ): significantly reduced; effect on cultured keratinocytes (cultured keratinocytes): dose-dependent stimulatory effect; minimal inhibitory concentration (MIC) (MRSA [5]): 32 to 128 µg/mL; clinical signs (erythema, edema, scaling and excoriation) [6]: significantly lessened; ear swelling [6]: significantly reduced; action against cultured squamous carcinoma cells (apoptosis) [7]: inhibitory action; epidermal thickness (keratinocytes [8]): significant increase; proliferation of keratinocytes (keratinocytes [8]; versus vehicle-treated samples): significantly stimulated
